# Test results taken from patent US7622489B2, “Mitotic kinesin inhibitors” (Merck & Co., Inc., priority 2002, dated 2009).
# Target: T1, human KSP motor domain (KSP(367H)) (Homo sapiens, UniProt P52732)
# T1 construct: were used to amplify the motor domain and the neck linker region; made in house; host or cells: E. coli BL21 (DE3), vector pRSETa
# T1 sequence (P52732 18-359 limits assumed): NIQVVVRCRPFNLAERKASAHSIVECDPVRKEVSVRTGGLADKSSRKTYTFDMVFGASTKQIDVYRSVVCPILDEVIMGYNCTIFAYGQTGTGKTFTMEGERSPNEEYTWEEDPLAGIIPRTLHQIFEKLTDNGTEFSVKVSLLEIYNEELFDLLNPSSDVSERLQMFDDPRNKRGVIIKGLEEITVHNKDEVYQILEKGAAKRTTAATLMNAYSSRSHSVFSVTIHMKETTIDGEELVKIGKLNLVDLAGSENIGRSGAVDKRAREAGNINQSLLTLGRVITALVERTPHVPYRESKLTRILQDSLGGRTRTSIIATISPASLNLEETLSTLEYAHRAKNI
# Assay: Kinesin ATPhase In Vitro Assay
# Type: biochemical
# Details: kinesin motor domain with microtubules, 1 mM ATP, 23° C.; free phosphate by quinaldine red/ammonium molybdate, 540 nm
# Source text: I. Kinesin ATPhase In Vitro Assay
# Cloning and Expression of Human Poly-Histidine Tagged KSP Motor Domain (KSP(367H))
# Plasmids for the expression of the human KSP motor domain construct were cloned by PCR using a pBluescript full length human KSP construct (Blangy et al., Cell, vol. 83, pp1159-1169, 1995) as a template. The N-terminal primer 5′-[…] (SEQ. ID. NO.: 1) and the C-terminal primer 5′-[…] […] (SEQ. ID. NO.: 2) were used to amplify the motor domain and the neck linker region. The PCR products were digested with AseI and XhoI, ligated into the NdeIlXhoI digestion product of pRSETa (Invitrogen) and transformed into E. coli BL21 (DE3).
# Cells were grown at 37 IC to an OD600 of 0.5. […]
# The kinesin motor domain is incubated with microtubules, 1 mM ATP (1:1 MgCl2: Na-ATP), and compound at 23° C. in buffer containing 80 mM K-HEPES (pH 7.0), 1 mM EGTA, 1 mM DTT, 1 mM MgCl2, and 50 mM KCl. […] Free phosphate from the ATP hydrolysis reaction is measured via a quinaldine red/ammonium molybdate assay by adding 150 μl of quench C buffer containing a 2:1 ratio of quench A:quench B. Quench A contains 0.1 mg/mil quinaldine red and 0.14% polyvinyl alcohol; quench B contains 12.3 mM ammonium molybdate tetrahydrate in 1.15 M sulfuric acid. The reaction is incubated for 10 minutes at 23° C., and the absorbance of the phospho-molybdate complex is measured at 540 nm.
row,SMILES,IC50 [µM]
1,CC(C)[C@H](N)C(=O)N1CCC(c2cc(F)ccc2F)=CC1c1cccc(O)c1 (some centres unmarked) [Compound 2-2],≤ 15
2,"CNCC(C)CN(C)C(=O)N1CCC(c2cc(F)ccc2F)=CC1c1cccc(O)c1 (centres unmarked) [Compound 3-3, 4-(2,5-difluorophenyl)-6-(3-hydroxyphenyl)-N-methyl-N-[2-methyl-3-(methylamino)propyl]-3,6-dihydropyridine-1(2H)-carboxamide]",≤ 15
